In patent US20220323406A1, “METHODS AND COMPOSITIONS FOR DIFFERENTIATING STEM CELLS” (Massachusetts Institute of Technology, priority 2019, published 2022):

How the values were obtained:
[1] = system: lysozyme (LYZ) in intestinal organoids; experiment: Western blotting of lysozyme in 3D-cultured intestinal organoids; assay type: cell-based, mouse; settings: ENR+CV, ENR+CD or ENR, 6 days
Excerpt: Western blotting. ISC-enriched organoids cultured in 3D Matrigel with ENRCV media were passaged to 24-well plate in 3D Matrigel with ENRCV. At day zero, media were replaced to ENR or ENRCD with or without indicated compounds, and media were replaced every other day. At day six, cells were harvested from Matrigel by mechanical disruption and suspended in basal media. Cell pellets were lysed with Pierce® IP lysis buffer (ThermoFisher, 87787) containing Halt™ Protease Inhibitor Cocktail, EDTA-Free (ThermoFisher, 87785) after 3-minute centrifuge at 300×g at 4° C. Cell extracts were resolved by NuPAGE® SDS-PAGE Gel system (ThermoFisher) and electroblotted onto polyvinylidene difluoride membranes using Criterion™ Blotter (Biorad). The membranes were blocked with 2% Blotting-Grade Blocker (Biorad, 1706404) in TBS-T (50 mM Tris-HCl, 150 mM NaCl, and 0.1% Tween 20, pH 8.0) and then probed with appropriate antibodies. Detection was performed using ECL Select™ Western Blotting Detection Reagent (Amersham, 45-000-999) and ImageQuant LAS4000 (GE Healthcare).
Western blotting. Organoid-containing gel was homogenized in basal medium and centrifuged at 300 rcf for 3 min. Organoid pellet was lysed with ice-cold Pierce IP Lysis Buffer (Thermo Fisher Scientific, #87787) containing Halt Protease Inhibitor Cocktail, EDTA-Free (Thermo Fisher Scientific, #87785) and incubated on ice for 20 min. The lysate was centrifuged at 17,000 rcf for 10 min, and the supernatant was combined with NuPAGE LDS Sample Buffer (Thermo Fisher Scientific, NP0007). Protein concentration was determined by Pierce 660 nm Protein Assay (Thermo Fisher Scientific, #22660) and normalized to the lowest concentration among each sample set. […] Chemiluminescent signals were detected by LAS4000 (GE Healthcare) using Amersham ECL Select Western Blotting Detection Reagent (GE Healthcare, #45-000-999), and total protein signals were obtained by Odyssey Imaging System (LI-COR Biosciences) using REVERT Total Protein Stain Kit (LI-COR Biosciences, #926-11010).

[2] = Animal study: oral gavage every other day for two weeks, body weight; assay type: in vivo, mouse
Method: Following a similar protocol as previously reported for SINE treatment in the context of cancer (Arango et al., 2017; Azmi et al., 2013; Hing et al., 2016; Zheng et al., 2014), KPT-330 was administered at a dose 10 mg/kg via oral gavage every other day over a two-week span in C57BL/6 wild-type mice, and body weight was monitored for any clear toxicity. […] Given animal weight loss on the standard chemotherapeutic dosage regimen, and additional evidence that sustained dosage of SINEs adversely impacts T cell populations (Tyler et al., 2017), Applicants sought to explore dosing regimens well below 10 mg/kg, to see if a pro-Paneth phenotype may exist below potential toxicities. […] Applicants tracked animal weight every other day, and at day 14 collected the proximal and distal thirds of the small intestine for histological quantification of Paneth, stem, and goblet populations (FIG. 26A). […] Paneth cells were counted within well preserved crypts, with at minimum 30 crypts quantified per animal (representative images FIG. 30C) and then averaged to get mean Paneth cells per crypt in distal and proximal thirds of the small intestine. […] Applicants additionally quantified the abundance of Olfm4+ stem cells as well as PAS+ goblet cells within the same animals to ascertain whether the effect of SINE treatment was restricted to the Paneth cell compartment (representative images FIG. 30D,E). […]

Question: Which “LYZ abundance per-mass protein (Western blot)” value [1] does the source give for O=C(/C=C\n1cnc(-c2cc(C(F)(F)F)cc(C(F)(F)F)c2)n1)NNc1cnccn1 [KPT-330] here?
Answer: appreciably increase LYZ abundance

Question: What about the body weight ([2]; 10 mg/kg oral gavage every other day) of the same compound?
Answer: significant weight loss

Question: And the body weight ([2]; 0.2, 0.05 and 0.01 mg/kg oral gavage every other day)?
Answer: no significant changes in animal weight at any dose
